Target: T1, GSK3β (Homo sapiens, UniProt P49841)
T1 construct: gene GSK3B
Assay: Kinase-Glo Plus luminescent enzymatic assay, […] ATP
Assay type: biochemical

T1 sequence (P49841 whole entry): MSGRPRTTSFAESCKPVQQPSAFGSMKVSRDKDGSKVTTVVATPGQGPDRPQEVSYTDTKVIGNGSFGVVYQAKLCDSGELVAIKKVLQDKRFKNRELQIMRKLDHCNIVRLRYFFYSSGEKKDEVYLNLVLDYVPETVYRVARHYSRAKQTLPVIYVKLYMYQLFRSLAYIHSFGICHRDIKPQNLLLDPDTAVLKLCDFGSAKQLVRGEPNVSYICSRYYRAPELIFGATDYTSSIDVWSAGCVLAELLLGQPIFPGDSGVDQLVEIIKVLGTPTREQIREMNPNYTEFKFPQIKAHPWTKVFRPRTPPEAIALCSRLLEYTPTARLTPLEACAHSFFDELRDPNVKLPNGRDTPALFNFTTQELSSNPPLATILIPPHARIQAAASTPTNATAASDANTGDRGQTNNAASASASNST

For kushenol F [MOL006617], which IC50 is on record?
The IC50 was 4.96 ± 1.29 µM.

Source: PMC13358776, “Discovery of Two GSK3β Inhibitors from Sophora flavescens Ait. using Structure-based Virtual Screening and Bioactivity Evaluation” (Current Computer-Aided Drug Design, 2024)
